T/C data for 25 molecules are collected here from PubChem BioAssay AID248 (DTP/NCI, 2004).

Several values for one entry are separate records, joined by “and”; a condition that tells them apart may be missing. Equal entries are not always repeated. Inconclusive results and toxic doses are left out.

The test deals with L1210 leukemia ip in BDF1 mice, survival T/C. Description: NCI In Vivo Anticancer Drug Screen. Data for tumor model L1210 Leukemia (intraperitoneal) in B6D2F1 (BDF1) mice. The conditions noted are these: endpoint: mean survival time, higher = longer survival. The gist of the method:
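Tumor cells were implanted, animals were treated, and survival was followed. The result divides the treated measurement by the vehicle-control measurement.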

The mark [1] stands for this setting: dose: 12.5 mg/kg/injection, schedule: Q01DX009 (ip), vehicle: saline with Tween-80.
Setting [2] is: dose: 50.0 mg/kg/injection, schedule: Q01DX009 (ip), vehicle: saline with Tween-80.
[3] abbreviates: dose: 100.0 mg/kg/injection, schedule: Q01DX009 (ip), vehicle: saline with Tween-80.
The mark [4] stands for this setting: dose: 100.0 mg/kg/injection, schedule: Q04DX003 (ip), vehicle: saline.
Where [5] appears, read: dose: 200.0 mg/kg/injection, schedule: Q04DX003 (ip), vehicle: saline.
The mark [6] stands for this setting: dose: 400.0 mg/kg/injection, schedule: Q04DX003 (ip), vehicle: saline.
Setting [7] is: dose: 100.0 mg/kg/injection, schedule: Q04DX002 (ip), vehicle: saline.
The mark [8] stands for this setting: dose: 200.0 mg/kg/injection, schedule: Q04DX002 (ip), vehicle: saline.
[9] abbreviates: dose: 400.0 mg/kg/injection, schedule: Q04DX002 (ip), vehicle: saline.
The mark [10] stands for this setting: dose: 100.0 mg/kg/injection, schedule: Q04DX003 (ip), vehicle: Klucel (hydroxypropylcellulose) (HPC).
[11] abbreviates: dose: 200.0 mg/kg/injection, schedule: Q04DX003 (ip), vehicle: Klucel (hydroxypropylcellulose) (HPC).
Where [12] appears, read: dose: 25.0 mg/kg/injection, schedule: Q01DX009 (ip), vehicle: saline with Tween-80.
Where [13] appears, read: dose: 50.0 mg/kg/injection, schedule: Q01DX009 (ip), vehicle: Klucel (hydroxypropylcellulose) (HPC).
Setting [14] is: dose: 100.0 mg/kg/injection, schedule: Q01DX009 (ip), vehicle: Klucel (hydroxypropylcellulose) (HPC).
Setting [15] is: dose: 100.0 mg/kg/injection, schedule: Q04DX002 (ip), vehicle: Klucel (hydroxypropylcellulose) (HPC).
Setting [16] is: dose: 200.0 mg/kg/injection, schedule: Q04DX002 (ip), vehicle: Klucel (hydroxypropylcellulose) (HPC).
The mark [17] stands for this setting: dose: 400.0 mg/kg/injection, schedule: Q04DX002 (ip), vehicle: Klucel (hydroxypropylcellulose) (HPC).
Setting [18] is: dose: 200.0 mg/kg/injection, schedule: Q01DX009 (ip), vehicle: Klucel (hydroxypropylcellulose) (HPC).
Setting [19] is: dose: 400.0 mg/kg/injection, schedule: Q01DX009 (ip), vehicle: Klucel (hydroxypropylcellulose) (HPC).
The mark [20] stands for this setting: dose: 100.0 mg/kg/injection, schedule: Q01DX001 (ip), vehicle: saline.
Setting [21] is: dose: 200.0 mg/kg/injection, schedule: Q01DX001 (ip), vehicle: saline.
Where [22] appears, read: dose: 400.0 mg/kg/injection, schedule: Q01DX001 (ip), vehicle: saline.

Regarding `Nc1nc(N)c2c(Cl)c(CNc3ccc(Cl)c(Cl)c3)ccc2n1`, the T/C is 124 % of control (dose: 6.25 mg/kg/injection, schedule: Q01DX009 (ip), vehicle: water); 158 % of control under setting [1]; 119 % of control under setting [2]; 93 % of control and 110 % of control (dose: 50.0 mg/kg/injection, schedule: Q01DX009 (ip), vehicle: water); 107 % of control (dose: 50.0 mg/kg/injection, schedule: Q04DX003 (ip), vehicle: water); 91 % of control under setting [3]. Further, the T/C is 86 % of control (dose: 100.0 mg/kg/injection, schedule: Q01DX009 (ip), vehicle: water); 124 % of control (dose: 100.0 mg/kg/injection, schedule: Q04DX003 (ip), vehicle: water); 113 % of control (dose: 400.0 mg/kg/injection, schedule: Q04DX003 (ip), vehicle: water); 97 % of control (dose: 600.0 mg/kg/injection, schedule: Q04DX003 (ip), vehicle: water).

For `CCN(CC)CCOC(=O)c1[nH]cnc1/N=N/N(C)C1CCCCC1`, the T/C (dose: 100.0 mg/kg/injection, schedule: Q01DX001 (ip), vehicle: other) was 104 % of control and the T/C (dose: 200.0 mg/kg/injection, schedule: Q01DX001 (ip), vehicle: other) is 93 % of control.

Take `CC1(C)C(=O)C(C)(C)C1=NO`: the T/C reads like this: under setting [4], 103 % of control; under setting [5], 95 % of control; under setting [6], 103 % of control.

As to `CCCCOC(=O)C(C)(O)C(Cl)c1ccccc1` (stereo not given), the T/C is 100 % of control under setting [7], 95 % of control under setting [8] and 91 % of control under setting [9].

In the case of `C=CS(=O)(=O)c1ccccc1Cl`, the T/C under setting [10] is 104 % of control and the T/C under setting [11] was 98 % of control.

As to `COc1cc(/C=N/[N+](C)(C)C)ccc1O`, the T/C runs as follows: under setting [1], 94 % of control; (dose: 12.5 mg/kg/injection, schedule: Q04DX003 (ip), vehicle: saline with Tween-80) 96 % of control; under setting [12], 96 % of control; (dose: 25.0 mg/kg/injection, schedule: Q04DX003 (ip), vehicle: saline with Tween-80) 93 % of control; (dose: 50.0 mg/kg/injection, schedule: Q04DX003 (ip), vehicle: saline with Tween-80) 97 % of control.

Regarding `O=C(ONC1CCC(CC2CCCCC2)CC1)c1ccccc1` (stereo not given), the T/C by setting is: under setting [13], 102 % of control; under setting [14], 97 % of control; under setting [10], 97 % of control; under setting [11], 89 % of control.

For the molecule `O=C(O)CCN1C/C(=C\c2ccc(Cl)cc2)C(=O)C1=O`, the T/C was 101 % of control under setting [4], 101 % of control under setting [5] and 101 % of control under setting [6].

For `COC(=O)CCN1CCC1`, the T/C under setting [7] is 97 % of control, the T/C under setting [8] was 101 % of control and the T/C under setting [9] is 97 % of control.

With `O=c1[nH]cc(CC(F)(F)C(F)(F)F)c(=O)[nH]1`, the T/C (dose: 50.0 mg/kg/injection, schedule: Q01DX005 (ip), vehicle: other) is 87 % of control.

On to `Cc1c(C(C)(C)C)cc(CC(C)C)c(O)c1-c1c(C)c(CC(C)C)cc(C(C)(C)C)c1O`, for which the T/C is, setting by setting: under setting [15], 98 % of control; under setting [16], 91 % of control; under setting [17], 94 % of control.

`CCC1(c2ccccc2)C(=O)NC(=S)N(C)C1=O` (stereo not given): the T/C reads like this: (dose: 75.0 mg/kg/injection, schedule: Q01DX001 (ip), vehicle: other) 95 % of control; (dose: 150.0 mg/kg/injection, schedule: Q01DX001 (ip), vehicle: other) 96 % of control.

For the molecule `CSc1ccc(C(=O)c2ccc(SC)cc2)cc1`, the T/C runs as follows: under setting [14], 98 % of control; under setting [18], 98 % of control; under setting [19], 95 % of control.

For `Cn1c(=O)c(CC(C(=O)O)C(=O)O)nc2ccccc21`, the T/C is, setting by setting: under setting [13], 93 % of control; under setting [14], 93 % of control; under setting [18], 100 % of control.

As for `O=[N+]([O-])c1ccccc1OCCBr`, the T/C under setting [10] is 100 % of control and the T/C under setting [11] was 94 % of control.

Consider `CNC(=O)Nc1ccc(Cl)cn1`, for which the T/C was 100 % of control under setting [12]; 97 % of control under setting [2]; 98 % of control and 103 % of control under setting [3].

Consider `Nc1cc(=O)[nH]c(=S)n1-c1ccc(I)cc1`, for which the T/C (dose: 50.0 mg/kg/injection, schedule: Q01DX001 (ip), vehicle: saline) was 100 % of control; the T/C under setting [20] is 106 % of control; the T/C under setting [21] was 102 % of control; the T/C under setting [22] is 100 % of control.

For `O=C(O)c1c(O)c2cc(Br)ccc2oc1=O`, the T/C is 98 % of control under setting [20], 98 % of control under setting [21] and 102 % of control under setting [22].

Consider `CC1(C)C=CC(C)(C)c2c(NS(=O)(=O)c3ccccc3)ccc(NS(=O)(=O)c3ccccc3)c21`, for which the T/C runs as follows: under setting [3], 97 % of control; (dose: 200.0 mg/kg/injection, schedule: Q01DX009 (ip), vehicle: saline with Tween-80) 92 % of control; (dose: 400.0 mg/kg/injection, schedule: Q01DX009 (ip), vehicle: saline with Tween-80) 94 % of control.

Take `Cc1cc(OC(C)C(=O)O)c(Cl)cc1Cl` (stereo not given): the T/C by setting is: (dose: 50.0 mg/kg/injection, schedule: Q01DX001 (ip), vehicle: carboxymethylcellulose (CMC)) 103 % of control; (dose: 100.0 mg/kg/injection, schedule: Q01DX001 (ip), vehicle: carboxymethylcellulose (CMC)) 103 % of control.

For the molecule `CC(C)(CO)N=Cc1ccccc1Cl`, the T/C by setting is: under setting [20], 102 % of control; under setting [21], 100 % of control; under setting [22], 100 % of control.

Take `c1ccc(-c2cc(-c3ccccc3)[o+]c(-c3ccccc3)c2)cc1`: the T/C is, setting by setting: under setting [15], 93 % of control; under setting [16], 96 % of control; under setting [17], 90 % of control.

On to `COc1ccccc1/C=N/N=C(N)N`, for which the T/C reads like this: (dose: 15.5 mg/kg/injection, schedule: Q01DX Z (ip), vehicle: other) 97 % of control; (dose: 31.0 mg/kg/injection, schedule: Q01DX Z (ip), vehicle: other) 96 % of control.

`CC(=O)N(CCN(Cc1ccc(Oc2ccc([N+](=O)[O-])cc2[N+](=O)[O-])cc1)C(C)=O)CCN(Cc1ccc(Oc2ccc([N+](=O)[O-])cc2[N+](=O)[O-])cc1)C(C)=O`: the T/C (dose: 25.0 mg/kg/injection, schedule: Q01DX009 (ip), vehicle: other) was 102 % of control; the T/C (dose: 50.0 mg/kg/injection, schedule: Q01DX009 (ip), vehicle: other) is 97 % of control; the T/C (dose: 100.0 mg/kg/injection, schedule: Q01DX009 (ip), vehicle: other) was 96 % of control; the T/C (dose: 200.0 mg/kg/injection, schedule: Q01DX009 (ip), vehicle: other) is 96 % of control; the T/C (dose: 400.0 mg/kg/injection, schedule: Q01DX009 (ip), vehicle: other) was 93 % of control.

Regarding `Cc1ccc(C(=O)CC(Sc2ccccc2N)c2cccc([N+](=O)[O-])c2)cc1` (stereo not given), the T/C is 93 % of control (dose: 100.0 mg/kg/injection, schedule: Q01DX005 (ip), vehicle: Klucel (hydroxypropylcellulose) (HPC)); 97 % of control under setting [14]; 98 % of control under setting [15]; 96 % of control (dose: 200.0 mg/kg/injection, schedule: Q01DX005 (ip), vehicle: Klucel (hydroxypropylcellulose) (HPC)); 94 % of control under setting [18]; 115 % of control (dose: 400.0 mg/kg/injection, schedule: Q01DX005 (ip), vehicle: Klucel (hydroxypropylcellulose) (HPC)). Moreover, the T/C was 97 % of control under setting [19] and 95 % of control under setting [17].
